How the values were obtained:
Type in all cases: biochemical
Conditions in all cases: ATP at or close to Km
MLK1 = MLK1 (Homo sapiens, UniProt P80192); assay: MLK1 inhibition screen
From the text: (§1) Compound(s) were screened for their ability to inhibit Arg (Abl-2), FGFR1, MLK1, Tie2, and TrkA using screening methods known to one of ordinary skill in the art. All of the above enzymes were screened with ATP concentrations at or close to the Km for ATP.

Tie2 = Tie2 (Homo sapiens, UniProt Q02763); assay: Tie2 inhibition screen
From the text: as §1

TrkA = TrkA (Homo sapiens, UniProt P04629); assay: TrkA inhibition screen
From the text: as §1

[1] = Table 6, introduced as Ki values

Sequence of MLK1 (P80192 whole entry, species assumed): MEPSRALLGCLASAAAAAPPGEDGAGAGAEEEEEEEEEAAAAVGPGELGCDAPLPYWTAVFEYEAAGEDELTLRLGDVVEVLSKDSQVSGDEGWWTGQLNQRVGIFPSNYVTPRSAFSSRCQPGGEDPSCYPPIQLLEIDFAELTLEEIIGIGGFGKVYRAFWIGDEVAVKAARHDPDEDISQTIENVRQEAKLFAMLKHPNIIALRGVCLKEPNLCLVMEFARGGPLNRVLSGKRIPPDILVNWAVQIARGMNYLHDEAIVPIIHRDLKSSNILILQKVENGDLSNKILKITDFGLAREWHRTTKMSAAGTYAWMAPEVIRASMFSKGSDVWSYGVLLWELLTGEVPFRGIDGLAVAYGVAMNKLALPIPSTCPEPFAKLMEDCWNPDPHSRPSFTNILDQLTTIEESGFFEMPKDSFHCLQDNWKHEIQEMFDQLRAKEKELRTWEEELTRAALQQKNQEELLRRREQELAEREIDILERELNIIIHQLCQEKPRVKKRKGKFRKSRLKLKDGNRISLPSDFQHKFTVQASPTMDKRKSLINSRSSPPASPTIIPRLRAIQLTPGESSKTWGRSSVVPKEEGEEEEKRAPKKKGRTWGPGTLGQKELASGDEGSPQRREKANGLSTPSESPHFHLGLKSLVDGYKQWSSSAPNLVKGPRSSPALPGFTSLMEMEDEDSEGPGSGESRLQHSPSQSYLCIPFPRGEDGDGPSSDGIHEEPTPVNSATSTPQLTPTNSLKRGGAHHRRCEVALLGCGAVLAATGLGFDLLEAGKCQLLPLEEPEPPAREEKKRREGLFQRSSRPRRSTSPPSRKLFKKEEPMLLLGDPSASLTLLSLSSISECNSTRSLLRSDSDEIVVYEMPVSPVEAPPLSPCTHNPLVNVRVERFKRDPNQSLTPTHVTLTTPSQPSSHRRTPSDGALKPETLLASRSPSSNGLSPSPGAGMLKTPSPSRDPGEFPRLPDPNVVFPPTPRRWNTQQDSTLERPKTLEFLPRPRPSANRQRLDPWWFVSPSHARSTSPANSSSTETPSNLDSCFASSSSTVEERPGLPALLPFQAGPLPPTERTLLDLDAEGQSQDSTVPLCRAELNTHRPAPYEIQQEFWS
Sequence of TrkA (P04629 33-796, species assumed): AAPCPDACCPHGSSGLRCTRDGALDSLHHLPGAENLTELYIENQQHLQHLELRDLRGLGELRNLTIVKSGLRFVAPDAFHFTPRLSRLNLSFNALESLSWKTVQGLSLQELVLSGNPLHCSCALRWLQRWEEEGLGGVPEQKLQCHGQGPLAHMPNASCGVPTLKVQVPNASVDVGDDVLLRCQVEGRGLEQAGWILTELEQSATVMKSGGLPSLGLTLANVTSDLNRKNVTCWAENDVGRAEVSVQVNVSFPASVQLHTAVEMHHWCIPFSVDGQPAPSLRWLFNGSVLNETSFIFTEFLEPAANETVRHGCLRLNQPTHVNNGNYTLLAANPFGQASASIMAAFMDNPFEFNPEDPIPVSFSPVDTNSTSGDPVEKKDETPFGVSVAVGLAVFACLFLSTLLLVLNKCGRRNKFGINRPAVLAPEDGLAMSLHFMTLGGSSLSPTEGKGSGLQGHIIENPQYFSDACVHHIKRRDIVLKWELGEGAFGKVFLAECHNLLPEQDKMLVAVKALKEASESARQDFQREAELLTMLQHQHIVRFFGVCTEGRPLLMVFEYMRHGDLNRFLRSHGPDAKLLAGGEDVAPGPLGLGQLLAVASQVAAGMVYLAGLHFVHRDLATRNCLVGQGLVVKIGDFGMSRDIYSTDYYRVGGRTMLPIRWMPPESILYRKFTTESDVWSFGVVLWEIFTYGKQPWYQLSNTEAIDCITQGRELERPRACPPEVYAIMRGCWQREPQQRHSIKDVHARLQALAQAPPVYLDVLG
Sequence of Tie2 (Q02763 23-1124, species assumed): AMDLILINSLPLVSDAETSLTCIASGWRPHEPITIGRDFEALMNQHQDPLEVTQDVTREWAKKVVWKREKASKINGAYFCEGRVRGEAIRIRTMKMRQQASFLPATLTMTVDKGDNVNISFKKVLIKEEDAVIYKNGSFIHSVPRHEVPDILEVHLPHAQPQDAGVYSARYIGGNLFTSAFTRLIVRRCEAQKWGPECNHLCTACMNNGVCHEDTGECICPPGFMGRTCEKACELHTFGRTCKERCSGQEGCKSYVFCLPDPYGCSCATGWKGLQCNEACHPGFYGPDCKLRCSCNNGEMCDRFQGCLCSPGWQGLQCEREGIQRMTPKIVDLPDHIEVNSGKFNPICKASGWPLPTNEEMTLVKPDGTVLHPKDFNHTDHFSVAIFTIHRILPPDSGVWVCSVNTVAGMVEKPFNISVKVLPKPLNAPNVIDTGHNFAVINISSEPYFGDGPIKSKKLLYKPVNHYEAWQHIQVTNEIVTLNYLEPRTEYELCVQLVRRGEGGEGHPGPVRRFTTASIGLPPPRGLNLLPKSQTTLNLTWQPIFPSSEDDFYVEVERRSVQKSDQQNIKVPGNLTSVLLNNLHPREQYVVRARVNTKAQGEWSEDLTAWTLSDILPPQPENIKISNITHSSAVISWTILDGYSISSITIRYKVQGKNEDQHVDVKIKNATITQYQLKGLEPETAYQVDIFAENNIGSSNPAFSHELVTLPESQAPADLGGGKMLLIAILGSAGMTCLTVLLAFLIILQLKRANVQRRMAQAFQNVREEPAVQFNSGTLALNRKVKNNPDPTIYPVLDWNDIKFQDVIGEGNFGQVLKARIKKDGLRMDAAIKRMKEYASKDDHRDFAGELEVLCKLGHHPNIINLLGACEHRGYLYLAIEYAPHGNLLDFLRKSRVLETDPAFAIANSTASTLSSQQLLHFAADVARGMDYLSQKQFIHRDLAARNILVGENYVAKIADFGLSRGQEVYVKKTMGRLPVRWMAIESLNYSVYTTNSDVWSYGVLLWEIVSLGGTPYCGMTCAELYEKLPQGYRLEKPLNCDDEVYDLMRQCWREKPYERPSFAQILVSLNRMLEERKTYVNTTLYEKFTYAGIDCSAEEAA

In the case of Cc1cc(Nc2cc(N3CC(F)(C4CC4)C3)nc(Sc3ccc(NC(=O)CC(F)(F)F)cc3)n2)[nH]n1 [Compound I-14, N-(4-(4-(3-methyl-1H-pyrazol-5-ylamino)-6-(3-cyclopropyl-3-fluoroazetidin-1-yl)pyrimidin-2-ylthio)phenyl)-3,3,3-trifluoropropanamide], the IC50 (MLK1; Table 5) is reported as 27 nM, the IC50 (MLK1; [1]) is reported as 14 nM and the IC50 (Tie2; Table 5) is reported as 89 nM. For the same molecule, the IC50 (Tie2; [1]) was 47 nM, the IC50 (TrkA; Table 5) was 18 nM and the IC50 (TrkA; [1]) was 5 nM.

From patent US8129399B2, “Aminopyrimidines useful as kinase inhibitors” (Vertex Pharmaceuticals Incorporated, priority 2005, dated 2012)
